Assay [1] has as its system DRO cells. Description: DRO cell proliferation (cell counts over six days). Type of assay: cell-based, human. The note with it: for IC50: Homo sapiens. As for the experimental part:
. Cells were treated every 48 hours over six days. Cell numbers were counted and data were plotted as mean values ±S.D. The thiazolidinediones inhibited cell proliferation of DRO cells in a dose responsive fashion (FIG. 3B). […]. The EC50 concentrations were in close agreement with the IC50 concentrations for each compound (FIG. 3B).
. […] Cell numbers were counted and data were plotted as mean values ±S.D. (FIG. 9D).
DRO90-1 (DRO) and ARO81 (ARO) cells were derived from primary cultures of human anaplastic thyroid carcinoma tumors that were obtained from Dr. G. J. Juillard (University of California-Los Angeles, Los Angeles, Calif.), and KTC-2 and KTC3 cells were obtained from Dr. Junichi Kurebayashi (Podtcheko et al., J. Clin. Endocrinol. Metab., 88:1889-1896 (2003) and Pushkarev et al., Molecular mechanisms of the Effects of Low Concentrations of Taxol in Anaplastic Thyroid Cancer Cells. Endocrinology: en. 2004-0127 (2004)). Cells were cultured in RPMI 1640 medium (Cellgro, Herndon Va.) supplemented with 10% charcoal-stripped fetal bovine serum (Hyclone), non-essential amino acids, sodium pyruvate, and penicillin-streptomycin-amphotericin B at 37° C. in a humidified atmosphere with 5% CO^2. Charcoal-stripped serum was used to exclude endogenous PPAR ligands contained in serum. For proliferation studies, cells were plated in triplicate in 12-well culture plates at initial concentrations of 2×10^4 cells/well. After overnight incubation, cells were treated with 10 nM RS5444 or DMSO diluent (Sigma) for 6 days with medium, and drug changed every 48 hours. After 6 days, cells were washed with PBS (Cellgro), trypsinized, and counted by Beckman Coulter Counter (Beckman Instruments, Fullerton Calif.). […]. Cells were treated with either DMSO or 10 nM RS5444 (24 hours). After treatment, phase images were obtained on an inverted microscope. For real time PCR studies, cells were plated in 60 mm plates at 50% confluence and treated with 10 nM RS5444 for indicated incubation periods. […].
Cells were either plated in triplicate at 7.5×10^4 cells/mL in 6-well plates or 2×10^4 cells/well in 12-well plates, allowed to adhere overnight, and then transfected for 24 to 72 hours with 2 to 5 μg of either scrambled, p21^WAF1/CIP1 (1022539), RhoB (SI00058933) or PPAR-γ-specific siRNA duplexes (Qiagen Valencia, Calif.) using RNAiFect reagent (Qiagen). The DNA target sequence for PPAR-γ was 5′-[…]-3′. After transfection, cells in the 6-well plates were treated with either DMSO diluent or 10 nM RS5444 for 24 hours and then analyzed by either real time PCR or immunoblotting. Cells in the 12-well plates were exposed for 6 days with medium, and drug changed every 48 hours. After 6 days, cells were washed with PBS (Cellgro), trypsinized, and counted by Beckman Coulter Counter.

For assay [2], the system named is DRO cells. Nature of the assay: Western blot of RhoB, RhoA, p21, cyclin E polypeptides in DRO cells. Type of assay: cell-based, human. As for the experimental part: RhoB and p21^WAF1/CIP1 polypeptide expression also was examined in ATC cells to determine the time course of induction of each polypeptide following stimulation with a PPARγ agonist (FIG. 6). […]. Polypeptide lysates were prepared and examined for RhoB, RhoA and β-actin expression. […]; FIG. 6A).
The time course for induction of RhoB and p21^WAF1/CIP1 was determined using Western blotting.
DRO90-1 (DRO) and ARO81 (ARO) cells were derived from primary cultures of human anaplastic thyroid carcinoma tumors that were obtained from Dr. G. J. Juillard (University of California-Los Angeles, Los Angeles, Calif.), and KTC-2 and KTC3 cells were obtained from Dr. Junichi Kurebayashi (Podtcheko et al., J. Clin. Endocrinol. Metab., 88:1889-1896 (2003) and Pushkarev et al., Molecular mechanisms of the Effects of Low Concentrations of Taxol in Anaplastic Thyroid Cancer Cells. Endocrinology: en. 2004-0127 (2004)). Cells were cultured in RPMI 1640 medium (Cellgro, Herndon Va.) supplemented with 10% charcoal-stripped fetal bovine serum (Hyclone), non-essential amino acids, sodium pyruvate, and penicillin-streptomycin-amphotericin B at 37° C. in a humidified atmosphere with 5% CO^2. Charcoal-stripped serum was used to exclude endogenous PPAR ligands contained in serum. For proliferation studies, cells were plated in triplicate in 12-well culture plates at initial concentrations of 2×10^4 cells/well. After overnight incubation, cells were treated with 10 nM RS5444 or DMSO diluent (Sigma) for 6 days with medium, and drug changed every 48 hours. After 6 days, cells were washed with PBS (Cellgro), trypsinized, and counted by Beckman Coulter Counter (Beckman Instruments, Fullerton Calif.). For morphology studies, cells were plated in 12 well plates at initial concentrations of 2.5×10^4 cells/well. Cells were treated with either DMSO or 10 nM RS5444 (24 hours). After treatment, phase images were obtained on an inverted microscope. For real time PCR studies, cells were plated in 60 mm plates at 50% confluence and treated with 10 nM RS5444 for indicated incubation periods. […].
Cells were collected and lysed in RIPA buffer containing 50 mM Tris, 5 mM EDTA, 150 mM NaCl, 0.1% SDS, 0.5% Deoxycholate, 1% NP40, and protease inhibitor cocktail (Roche) followed by centrifugation. Excised tumor tissues were lysed in 50 mM Tris pH 8.0+1% SDS. Collected supernatants were, analyzed for protein concentration using Pierce's BCA assay, with 25 μg protein loaded per gel lane (Invitrogen) with later transfer to Immobilon-P membranes. The membranes were hybridized with antibodies (Santa Cruz, Cell Signaling, Sigma-Aldrich, St. Louis Mo.) as indicated overnight at 4° C. followed by treatment with species-specific horseradish peroxidase IgG (Jackson labs) for 45 minutes at room temperature. Detection was performed using Supersignal West Pico chemoluminescence kit (Pierce). Quantification of bands was performed in triplicate using Image Quant 5.2 (Molecular Dynamics, Sunnyvale Calif.).
(In general: A western blot detects proteins with antibodies after separation by electrophoresis.)

The target of the next assay is T1, PPARγ (Homo sapiens, UniProt P37231).
T1 sequence (P37231 1-505): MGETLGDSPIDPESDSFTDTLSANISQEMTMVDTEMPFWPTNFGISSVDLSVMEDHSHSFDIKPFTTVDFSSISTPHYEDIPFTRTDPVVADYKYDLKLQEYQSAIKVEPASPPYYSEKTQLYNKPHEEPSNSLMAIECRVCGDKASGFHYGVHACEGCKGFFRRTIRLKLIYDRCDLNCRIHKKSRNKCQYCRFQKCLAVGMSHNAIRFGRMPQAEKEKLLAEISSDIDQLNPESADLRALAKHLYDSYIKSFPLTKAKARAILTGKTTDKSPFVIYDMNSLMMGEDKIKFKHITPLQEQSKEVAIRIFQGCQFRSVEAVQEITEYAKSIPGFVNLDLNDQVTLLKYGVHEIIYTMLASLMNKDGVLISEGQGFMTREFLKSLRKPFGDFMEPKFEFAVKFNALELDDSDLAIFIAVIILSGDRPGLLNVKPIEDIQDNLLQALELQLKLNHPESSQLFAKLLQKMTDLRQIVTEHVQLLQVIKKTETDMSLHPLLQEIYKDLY
Nature of the assay: PPRE3-tk-luc reporter (dual luciferase) assay in DRO cells. It is filed as cell-based. Details: endogenous in cells; host or cells: DRO90-1 (DRO) human anaplastic thyroid carcinoma cells. How it is done:
The effects of PPARγ agonists on DRO cells were investigated. […] Firefly luciferase activity was normalized to renilla […] activity (RLU) and plotted as mean values ±S.D. (FIG. 3A).
Cells were transfected with siRNA for 72 hours followed by transfected with a PPRE3-tk-luc reporter and treatment with 10 nM RS5444 for 24 hours. […] Cotransfection with renilla luciferase allowed for normalization to relative light units (RLU).
Cells were plated in 6-well culture plates at initial concentrations of 2×10^5 cells/well. After overnight incubation, cells were transfected with PPRE/luc and CMV/renilla luciferase plasmid using Lipofectamine 2000 (Invitrogen), and after 24 hours, cells were treated with PPAR-γ agonists at indicated concentrations. After 24 hours of drug treatments, cells were washed with PBS and lysed in 1× reporter lysis buffer (Roche), and luciferase activity was measured with a Dual Luciferase assay kit (Promega, Madison Wis.) with a luminometer (Veritas/Turner Biosystems). The enzyme activity was normalized for efficiency of transfection on the basis of renilla activity levels and reported as relative light units (RLU).

Setting [3] is: DRO cells treated every 48 hours over six days, read-out: IC50, concentration at which 50% of cell proliferation was inhibited.

Entries after “also recorded” stand apart in the source; their conditions may differ. Like-named read-outs stand apart in the source and are kept apart here.

Consider `COC(=O)[C@H](CCSC)NC(=O)c1ccc(NC[C@@H](N)CS)cc1-c1ccccc1` [FTI-277], for which the “inhibition of cell proliferation with RhoB vs scrambled siRNA” value in the assay on DRO cells [1] (DRO cells transfected with RhoB or scrambled siRNA, treated every 48 hours for 6 days) is “dependent upon the upregulation of RhoB polypeptide to inhibit cell proliferation”. In the assay with DRO cells [2] (24 hours, 10 nM RS5444, 1 ng/mL FK-228, 10 μM FTI-277), the “RhoB and p21 expression (Western blot)” value is “upregulation of both RhoB and p21 expression”.
For `O=C(Nc1ccccc1)c1cc([N+](=O)[O-])ccc1Cl` [GW9662], the “effect on growth inhibition by TZDs” value in the assay with DRO cells [1] (DRO cells pretreated one hour with 10 μM GW9662 before 10 nM RS5444, 1 μM rosiglitazone or 10 μM troglitazone, every 48 hours over six days) was “no longer growth inhibited”. In addition, in the assay on DRO cells [2] (GW9662 plus 10 nM RS5444, 24 hours), the “effect of antagonist on RS5444-induced RhoB polypeptide expression” value is listed as “abolished; also recorded: blocked the ability of RS5444 to elevate RhoB polypeptide expression”. The “effect on RS5444 inducible luciferase activity” value at PPARγ (10 μM GW9662 followed by 10 nM RS5444 one hour later) is “complete loss of RS5444 inducible luciferase activity”. The “effect on agonist activation of PPARγ-induced luciferase activity” value at PPARγ (DRO cells pretreated 5 minutes with 10 μM GW9662 before 10 nM RS5444, 1 μM rosiglitazone or 10 μM troglitazone) is “abolished”.
In the case of `CN(CCOc1ccc(CC2SC(=O)NC2=O)cc1)c1ccccn1` (stereo not drawn) [rosiglitazone], the IC50 in the assay with DRO cells [1] (setting [3]) was ~75 nM.
Regarding `Cc1c(C)c2c(c(C)c1O)CCC(C)(COc1ccc(CC3SC(=O)NC3=O)cc1)O2` (stereo not drawn) [troglitazone], the IC50 in the assay on DRO cells [1] (DRO cells treated every 48 hours for six days (FIG. 3B legend), read-out: IC50, DRO cell number) was ~1400 nM; in the assay on DRO cells [1] (setting [3]), ~1410 nM.

Values taken from patent publication US20080167532A1, “ASSESSING CANCER TREATMENT RESPONSIVENESS” (Mayo Foundation for Medical Education and Research, priority 2006, published 2008).
